Each compound was assayed against T1, PDE10 (UniProt Q8CA95) (assay: PDE10 enzyme inhibition, IMAP TR-FRET assay (Example A: MPDE10A7 Enzyme Activity and Inhibition)). Conditions: Table 1A, Examples 11-56; read-out: PDE10 IC50.
T1 sequence (Q8CA95 1-790): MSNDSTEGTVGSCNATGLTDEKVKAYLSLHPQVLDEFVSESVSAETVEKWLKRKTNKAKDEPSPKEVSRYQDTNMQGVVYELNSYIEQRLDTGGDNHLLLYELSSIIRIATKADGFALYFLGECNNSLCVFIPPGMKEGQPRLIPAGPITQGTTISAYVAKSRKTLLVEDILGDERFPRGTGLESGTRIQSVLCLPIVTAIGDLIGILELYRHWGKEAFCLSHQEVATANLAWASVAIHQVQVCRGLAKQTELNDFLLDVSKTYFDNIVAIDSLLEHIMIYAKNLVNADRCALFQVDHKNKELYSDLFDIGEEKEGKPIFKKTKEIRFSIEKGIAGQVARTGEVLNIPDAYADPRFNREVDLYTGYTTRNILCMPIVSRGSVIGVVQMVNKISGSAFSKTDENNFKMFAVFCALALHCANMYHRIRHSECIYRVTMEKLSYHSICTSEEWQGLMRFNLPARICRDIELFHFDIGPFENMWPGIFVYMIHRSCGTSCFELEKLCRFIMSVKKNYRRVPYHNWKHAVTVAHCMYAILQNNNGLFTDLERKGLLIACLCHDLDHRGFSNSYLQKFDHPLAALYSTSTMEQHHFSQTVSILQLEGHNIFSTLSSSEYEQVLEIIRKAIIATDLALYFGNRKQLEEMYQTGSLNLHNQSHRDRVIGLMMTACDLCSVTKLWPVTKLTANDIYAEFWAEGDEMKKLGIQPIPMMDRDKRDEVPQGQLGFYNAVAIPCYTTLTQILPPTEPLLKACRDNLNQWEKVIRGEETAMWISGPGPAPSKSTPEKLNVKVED
Type: biochemical
Protocol: MPDE10A7 Enzyme Activity and Inhibition Enzyme Activity. An IMAP TR-FRET assay was used to analyze the enzyme activity (Molecular Devices Corp., Sunnyvale Calif.). 5 μL of serial diluted PDE10A (BPS Bioscience, San Diego, Calif.) or tissue homogenate was incubated with equal volumes of diluted fluorescein labeled cAMP or cGMP for 60 min in 384-well polystyrene assay plates (Corning, Corning, N.Y.) at room temperature. After incubation, the reaction was stopped by adding 60 μL of diluted binding reagents and was incubated for 3 hours to overnight at room temperature. The plates were read on an Envision (Perkin Elmer, Waltham, Mass.) for time resolved fluorescence resonance energy transfer. The data were analyzed with GraphPad Prism (La Jolla, Calif.). Enzyme Inhibition. To check the inhibition profile, 5 μL of serial diluted compounds were incubated with 5 μL of diluted PDE10 enzyme (BPS Bioscience, San Diego, Calif.) or tissue homogenate in a 384-well polystyrene assay plate (Corning, Corning, N.Y.) for 30 min at room temperature. After incubation, 10 μL of diluted fluorescein labeled cAMP or cGMP substrate were added and incubated for 60 min at room temperature. The reaction was stopped by adding 60 μL of diluted binding reagents and plates were read on an Envision (Perkin Elmer, Waltham, Mass.) for time resolved fluorescence resonance energy transfer. The data were analyzed with GraphPad Prism (La Jolla, Calif.).

| Compound | IC50 [nM] |
| --- | --- |
| O=C(NCc1ccccc1)c1cccnc1N1CC(c2nc3cc(Cl)ccc3[nH]2)C1 [Example 19, N-Benzyl-2-[3-(5-chloro-1H-benzoimidazol-2-yl)-azetidin-1-yl]-nicotinamide] | 4650 |
| O=C(NCC1CCOCC1)c1cccnc1N1CC(c2nc3cc(Cl)ccc3[nH]2)C1 [Example 23, 2-[3-(5-chloro-1H-benzoimidazol-2-yl)-azetidin-1-yl]-N-(tetrahydro-pyran-4-ylmethyl)-nicotinamide] | 37600 |
| CC(C)CNC(=O)c1cccnc1N1CC(c2nc3cc(Cl)ccc3[nH]2)C1 [Example 22, 2-[3-(5-chloro-1H-benzoimidazol-2-yl)-azetidin-1-yl]-N-isobutyl-nicotinamide] | 2230 |
| N#Cc1ccc2[nH]c(C3CCN(c4nccnc4-c4ccccc4)C3)nc2c1 (stereo not drawn) [Example 15, 2-[1-(3-phenyl-pyrazin-2-yl)-pyrrolidin-3-yl]-1H-benzoimidazole-5-carbonitrile] | 461 |
| O=C(Nc1ccccc1)c1cccnc1N1CC(c2nc3cc(Cl)ccc3[nH]2)C1 [Example 18, 2-[3-(5-chloro-1H-benzoimidazol-2-yl)-azetidin-1-yl]-N-phenyl-nicotinamide] | 2600 |
| O=C(NCCc1ccccc1)c1cccnc1N1CC(c2nc3cc(Cl)ccc3[nH]2)C1 [Example 20, 2-[3-(5-chloro-1H-benzoimidazol-2-yl)-azetidin-1-yl]-N-phenethyl-nicotinamide] | 1680 |

Results, then the compound that gave them:

| IC50 [nM] | Compound |
| --- | --- |
| 987 | Clc1ccc2[nH]c(C3CN(c4ncccc4C4CCOCC4)C3)nc2c1 [Example 56, 5-chloro-2-(1-(3-(tetrahydro-2H-pyran-4-yl)pyridin-2-yl)azetidin-3-yl)-1H-benzo[d]imidazole] |
| 26 | COc1cccc(-c2nccnc2N2CC(c3nc4cc(Cl)ccc4[nH]3)C2)c1 [Example 28, 5-chloro-2-{1-[3-(3-methoxy-phenyl)-pyrazin-2-yl]-azetidin-3-yl}-1H-benzoimidazole] |
| 39.8 | Cc1ccc2[nH]c(C3CN(c4nccnc4-c4ccccc4)C3)nc2c1 [Example 39, 5-methyl-2-(1-(3-phenylpyrazin-2-yl)azetidin-3-yl)-1H-benzo[d]imidazole] |
| 119 | Clc1cccc(-c2nccnc2N2CC(c3nc4cc(Cl)ccc4[nH]3)C2)c1 [Example 31, 5-chloro-2-{1-[3-(3-chloro-phenyl)-pyrazin-2-yl]-azetidin-3-yl}-1H-benzoimidazole] |
| 3280 | O=C(NC1CCOCC1)c1nccnc1N1CC(c2nc3cc(Cl)ccc3[nH]2)C1 [Example 36, 3-[3-(5-chloro-1H-benzoimidazol-2-yl)-azetidin-1-yl]-pyrazine-2-carboxylic acid (tetrahydro-pyran-4-yl)-amide] |
| 80.6 | Cc1ccccc1-c1nccnc1N1CC(c2nc3cc(Cl)ccc3[nH]2)C1 [Example 24, 5-chloro-2-[1-(3-o-tolyl-pyrazin-2-yl)-azetidin-3-yl]-1H-benzoimidazole] |
| 442 | Clc1ccc2[nH]c(C3CN(c4nccnc4C4=CCOCC4)C3)nc2c1 [Example 51, 5-chloro-2-(1-(3-(3,6-dihydro-2H-pyran-4-yl)pyrazin-2-yl)azetidin-3-yl)-1H-benzo[d]imidazole] |
| 134 | Clc1ccc2[nH]c(C3CN(c4nccnc4N4CCOCC4)C3)nc2c1 [Example 50, 4-(3-(3-(5-chloro-1H-benzo[d]imidazol-2-yl)azetidin-1-yl)pyrazin-2-yl)morpholine] |
| 80.9 | Clc1ccc2[nH]c(C3CN(c4nccnc4Oc4ccccc4)C3)nc2c1 [Example 42, 5-chloro-2-(1-(3-phenoxypyrazin-2-yl)azetidin-3-yl)-1H-benzo[d]imidazole] |
| 10000 | CN(C)C(=O)c1nccnc1N1CC(c2nc3cc(Cl)ccc3[nH]2)C1 [Example 35, 3-[3-(5-chloro-1H-benzoimidazol-2-yl)-azetidin-1-yl]-pyrazine-2-carboxylic acid dimethylamide] |
| 134 | Clc1ccc2[nH]c(C3CN(c4nccnc4-c4ccncc4)C3)nc2c1 [Example 34, 5-chloro-2-[1-(3-pyridin-4-yl-pyrazin-2-yl)-azetidin-3-yl]-1H-benzoimidazole] |
| 2150 | O=C(NC[C@@H]1CCCO1)c1nccnc1N1CC(c2nc3cc(Cl)ccc3[nH]2)C1 [Example 38, 3-[3-(5-chloro-1H-benzoimidazol-2-yl)-azetidin-1-yl]-pyrazine-2-carboxylic acid (tetrahydro-furan-2-ylmethyl)-amide] |
| 168 | Clc1ccc2[nH]c(C3CN(c4ncccc4OC4CCOCC4)C3)nc2c1 [Example 49, 5-chloro-2-(1-(3-(tetrahydro-2H-pyran-4-yloxy)pyridin-2-yl)azetidin-3-yl)-1H-benzo[d]imidazole] |
| 920 | Clc1ccc2[nH]c(C3CN(c4nccnc4N4CCCCC4)C3)nc2c1 [Example 44, 5-chloro-2-(1-(3-(piperidin-1-yl)pyrazin-2-yl)azetidin-3-yl)-1H-benzo[d]imidazole] |

Same assay, conditions: Table 2A, Examples 61-64; read-out: IC50

| IC50 [nM] | Compound |
| --- | --- |
| 3120 | CC1CCN(c2nccnc2N2CC(c3ccc4ccccc4n3)C2)CC1 [Example 61, 2-{1-[3-(4-Methyl-piperidin-1-yl)-pyrazin-2-yl]-azetidin-3-yl}-quinoline] |
| 358 | OCC1CCN(c2nccnc2N2CC(c3ccc4ccccc4n3)C2)CC1 [Example 62, {1-[3-(3-Quinolin-2-yl-azetidin-1-yl)-pyrazin-2-yl]-piperidin-4-yl}-methanol] |

Same assay, conditions: read-out: IC50

| Compound | IC50 [nM] |
| --- | --- |
| Cc1ccc2[nH]c(C3CN(c4c(Cl)cncc4-c4ccccc4)C3)nc2c1 [Example 2B, 2-[1-(3-CHLORO-5-PHENYL-PYRIDIN-4-YL)-AZETIDIN-3-YL]-5-METHYL-1H-BENZOIMIDAZOLE] | 22 |
| N#Cc1ccc2[nH]c(C3CCN(c4nccnc4-c4ccccc4)CC3)nc2c1 [Example 1A, 2-[1-(3-PHENYL-PYRAZIN-2-YL)-PIPERIDIN-4-YL]-1H-BENZOIMIDAZOLE-5-CARBONITRILE] | 272 |
| Cc1ccc2[nH]c(C3CN(c4c(Cl)cncc4Cl)C3)nc2c1 [Example 2A, 2-[1-(3,5-DICHLORO-PYRIDIN-4-YL)-AZETIDIN-3-YL]-5-METHYL-1H-BENZOIMIDAZOLE] | 210 |
| Clc1ccc2[nH]c(C3CN(c4nccnc4OC4CCOCC4)C3)nc2c1 [Example 10, 5-CHLORO-2-(1-(3-(TETRAHYDRO-2H-PYRAN-4-YLOXY)PYRAZIN-2-YL)AZETIDIN-3-YL)-1H-BENZO[D]IMIDAZOLE] | 900 |
| Clc1ccc2[nH]c(C3CN(c4ccnc(N5CCOCC5)n4)C3)nc2c1 [Example 1D, 4-(4-(3-(5-CHLORO-1H-BENZO[D]IMIDAZOL-2-YL)AZETIDIN-1-YL)PYRIMIDIN-2-YL)MORPHOLINE] | 645 |
| Clc1ccc2[nH]c(C3CN(c4cc(C5CCOCC5)ncn4)C3)nc2c1 [Example 6, 5-CHLORO-2-(1-(6-(TETRAHYDRO-2H-PYRAN-4-YL)PYRIMIDIN-4-YL)AZETIDIN-3-YL)-1H-BENZO[D]IMIDAZOLE] | 1280 |
| O=C(c1cccnc1N1CC(c2nc3cc(Cl)ccc3[nH]2)C1)N1CC(O)C1 [Example 3, {2-[3-(5-CHLORO-1H-BENZOIMIDAZOL-2-YL)-AZETIDIN-1-YL]-PYRIDIN-3-YL}-(3-HYDROXY-AZETIDIN-1-YL)-METHANONE] | 549 |
| Clc1ccc2[nH]c(C3CN(c4nccnc4C4CCOCC4)C3)nc2c1 [Example 8, 5-CHLORO-2-(1-(3-(TETRAHYDRO-2H-PYRAN-4-YL)PYRAZIN-2-YL)AZETIDIN-3-YL)-1H-BENZO[D]IMIDAZOLE] | 1160 |
| Clc1ccc2[nH]c(C3CN(c4cc(OC5CCOCC5)ccn4)C3)nc2c1 [Example 5, 5-CHLORO-2-(1-(4-(TETRAHYDRO-2H-PYRAN-4-YLOXY)PYRIDIN-2-YL)AZETIDIN-3-YL)-1H-BENZO[D]IMIDAZOLE] | 1090 |

The remaining lines, values ahead:

| IC50 [nM] | Compound |
| --- | --- |
| 6820 | COc1cccc(-c2cccnc2N2CC(c3ccc4ccccc4n3)C2)c1 [Example 60, 2-{1-[3-(3-METHOXY-PHENYL)-PYRIDIN-2-YL]-AZETIDIN-3-YL}-QUINOLINE] |
| 7.61 | Cc1cccc(-c2nccnc2N2CC(c3ccc4ccccc4n3)C2)c1 [Example 58, 2-[1-(3-M-TOLYL-PYRAZIN-2-YL)-AZETIDIN-3-YL]-QUINOLINE] |
